What was measured:
Type in all cases: biochemical
MINA53 = target: T1, MINA53 (Homo sapiens, UniProt Q8IUF8); experiment: MINA53 MS (RapidFire) hydroxylation inhibition assay, Rpl27a peptide; conditions: for IC50: MS based, enzyme 150 nM, means ± SD of at least three experiments, read-out: IC50 MINA53 (150 nM); for preferential inhibition of MINA53 over all other tested 2OG oxygenases: worst case of the panel of Table 1
T1 construct: MINA53 (Met1-Val464 and Ala26-Val464); histidine tag (TEV-cleavable) (cleaved yes); made in house; host or cells: E. coli BL21(DE3)-R3-pRARE2
T1 sequence (Q8IUF8 1-464 isoform Q8IUF8-4): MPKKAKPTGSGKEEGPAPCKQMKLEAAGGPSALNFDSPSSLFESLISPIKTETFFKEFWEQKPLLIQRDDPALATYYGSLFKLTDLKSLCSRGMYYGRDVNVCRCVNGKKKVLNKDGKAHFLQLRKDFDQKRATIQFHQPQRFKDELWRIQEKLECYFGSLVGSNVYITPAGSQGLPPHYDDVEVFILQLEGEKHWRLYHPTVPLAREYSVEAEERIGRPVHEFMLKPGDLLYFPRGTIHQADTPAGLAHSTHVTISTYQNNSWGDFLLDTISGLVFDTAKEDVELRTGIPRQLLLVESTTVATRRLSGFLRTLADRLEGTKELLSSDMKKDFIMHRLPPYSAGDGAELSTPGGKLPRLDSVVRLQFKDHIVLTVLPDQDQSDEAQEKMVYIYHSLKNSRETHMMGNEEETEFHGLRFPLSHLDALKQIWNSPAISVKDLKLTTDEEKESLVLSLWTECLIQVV

p300 = target: T2, p300 (Homo sapiens, UniProt Q09472); experiment: HotSpot KAT assay; conditions: 100 µM; means ± SD of three experiments; read-out: Residual Enzymatic Activity (%) p300
T2 construct: purchased Reaction Biology Corporation, Malvern, PA, USA
T2 sequence (Q09472 1284-1673): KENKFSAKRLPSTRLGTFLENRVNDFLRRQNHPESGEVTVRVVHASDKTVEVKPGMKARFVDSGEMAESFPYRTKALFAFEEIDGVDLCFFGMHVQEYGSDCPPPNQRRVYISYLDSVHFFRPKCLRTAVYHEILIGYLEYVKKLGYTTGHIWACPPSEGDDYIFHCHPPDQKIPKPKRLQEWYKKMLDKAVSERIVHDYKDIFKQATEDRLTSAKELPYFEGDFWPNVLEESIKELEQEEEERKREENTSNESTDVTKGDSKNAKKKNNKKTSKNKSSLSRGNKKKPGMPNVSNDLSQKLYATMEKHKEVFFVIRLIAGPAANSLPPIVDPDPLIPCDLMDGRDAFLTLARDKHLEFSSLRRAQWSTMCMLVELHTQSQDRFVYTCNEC
Method: (§1) The ef fects of 1-13 on th e histone lysine acetyltr a nsferas e activity (KAT ) o f p300 and PCAF were
(§2) determined using the HotSpot KAT assay ( Reaction Biology Corporation, Malvern, PA, USA)
(§3) according to the supplier’s procedure. In brief, recombinant form s of catal ytic domains of PCAF
(§4) NaCl, 0.1 mM EDTA, 1 mM DTT, 1 mM PMSF, 1% (v/v) DMSO) fo r 1 h at 30 °C in the presenc e
(§5) or absence of various concentrations of the inhibitors. Histone H3 acetyl ation was assessed by
(§6) liquid scintillation counting using a Tri-Carb 2800TR Liquid Scintillation Analyzer
(§7) (PerkinElmer). Assays at fixed con centration doses were performed in triplicate and analyzed
(§8) using Excel and GraphPad Prism 6.0 software (GraphPad Software Inc., San Diego, CA).

PCAF = target: T3, PCAF (Homo sapiens, UniProt Q92831); experiment: HotSpot KAT assay; conditions: means ± SD of three experiments, read-out: Residual Enzymatic Activity (%) PCAF
T3 construct: purchased Reaction Biology Corporation, Malvern, PA, USA
T3 sequence (Q92831 492-658): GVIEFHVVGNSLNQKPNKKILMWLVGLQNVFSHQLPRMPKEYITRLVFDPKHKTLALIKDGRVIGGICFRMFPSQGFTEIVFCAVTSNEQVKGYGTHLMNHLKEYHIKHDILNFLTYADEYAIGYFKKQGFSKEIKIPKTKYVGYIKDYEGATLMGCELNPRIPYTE
Method: as §1, §2, §3, §4, §5, §6, §7, §8

FIH = FIH (Homo sapiens, UniProt Q9NWT6); experiment: RapidFire FIH inhibition assay; conditions: read-out: IC50 FIH (50 nM); MS based; enzyme 50 nM; means ± SD
Sequence of FIH (Q9NWT6 whole entry): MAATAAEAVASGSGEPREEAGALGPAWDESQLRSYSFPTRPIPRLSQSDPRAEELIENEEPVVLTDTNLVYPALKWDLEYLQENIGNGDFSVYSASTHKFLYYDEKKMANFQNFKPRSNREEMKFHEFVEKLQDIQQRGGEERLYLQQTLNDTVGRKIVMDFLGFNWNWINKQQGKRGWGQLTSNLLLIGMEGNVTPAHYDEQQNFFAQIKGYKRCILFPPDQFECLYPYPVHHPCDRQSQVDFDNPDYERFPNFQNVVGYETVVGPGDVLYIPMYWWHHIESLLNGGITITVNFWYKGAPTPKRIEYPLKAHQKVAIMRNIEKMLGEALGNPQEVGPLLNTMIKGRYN
Method: The reported procedure was used.[28] Tris(hydroxymethyl)aminomethane was from Fisher; all other reagents were from Sigma-Aldrich and of the highest available purity. FAS was prepared freshly every day as a 400 mM stock solution in 20 mM HCl, and this was then diluted to 1 mM in deionized water. […] The synthetic “consensus” ankyrin repeat derived peptide ([…]-CONH2) was synthesized by GL Biochem (Shanghai) Ltd and dissolved to 1 mM in deionized water. […] After 15 min, the reaction was quenched by the addition of 4 μL of 10% (v/v) aqueous formic acid and the reaction was transferred to a RapidFire RF360 high throughput sampling robot. The samples were aspirated under vacuum onto a C4 solid-phase extraction (SPE) cartridge. After an aqueous washing step (0.1% formic acid), to remove nonvolatile buffer components from the C4 SPE cartridge, peptides were eluted in an organic washing step (85% (v/v) aqueous acetonitrile, 0.1% formic acid) and injected into an Agilent 6530 Q-TOF mass spectrometer. Ion chromatogram data were extracted for the nonhydroxylated peptide substrate and the hydroxylated peptide product; peak area data for the extracted ion chromatograms were integrated using RapidFire Integrator software. Percentage conversion of the substrate to the product was calculated in Microsoft excel, and IC50 curves were generated using GraphPad Prism 5.0.

KDM3B = target: T4, KDM3B (Homo sapiens, UniProt Q7LBC6); experiment: AlphaScreen KDM inhibition assay; conditions: read-out: IC50 KDM3B (0.4 nM), enzyme 0.4 nM, means ± SD
T4 construct: (L882- S1761); His6 (N); made in house; host or cells: insect cells
T4 sequence (Q7LBC6 882-1761): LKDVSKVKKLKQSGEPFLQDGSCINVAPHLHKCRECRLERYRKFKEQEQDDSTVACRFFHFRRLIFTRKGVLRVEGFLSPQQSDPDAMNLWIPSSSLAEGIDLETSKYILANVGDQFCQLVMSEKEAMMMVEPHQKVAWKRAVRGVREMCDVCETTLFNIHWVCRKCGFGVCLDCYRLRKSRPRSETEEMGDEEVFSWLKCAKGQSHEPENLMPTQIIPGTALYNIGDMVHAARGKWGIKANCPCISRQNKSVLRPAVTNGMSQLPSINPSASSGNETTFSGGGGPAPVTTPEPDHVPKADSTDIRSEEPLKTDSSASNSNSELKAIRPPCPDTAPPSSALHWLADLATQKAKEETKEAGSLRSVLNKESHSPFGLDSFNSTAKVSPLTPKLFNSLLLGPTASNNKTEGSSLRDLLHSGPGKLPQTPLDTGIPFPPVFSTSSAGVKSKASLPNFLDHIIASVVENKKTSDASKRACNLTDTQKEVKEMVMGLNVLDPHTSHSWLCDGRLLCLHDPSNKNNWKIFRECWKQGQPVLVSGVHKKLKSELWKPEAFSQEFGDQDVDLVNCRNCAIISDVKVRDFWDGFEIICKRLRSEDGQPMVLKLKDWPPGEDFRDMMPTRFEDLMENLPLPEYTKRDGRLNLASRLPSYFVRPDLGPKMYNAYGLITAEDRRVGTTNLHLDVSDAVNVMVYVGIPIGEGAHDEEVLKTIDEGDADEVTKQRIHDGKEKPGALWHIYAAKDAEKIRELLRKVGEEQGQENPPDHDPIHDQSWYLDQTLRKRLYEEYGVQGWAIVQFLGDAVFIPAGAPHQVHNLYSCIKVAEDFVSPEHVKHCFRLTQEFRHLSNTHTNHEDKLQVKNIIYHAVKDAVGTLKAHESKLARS

SMILES	IC50 (MINA53)	remaining activity at 100 µM (p300)	remaining activity at 100 µM (PCAF)	IC50 (FIH)	IC50 (KDM3B)	preference for the inhibition of MINA53 over FIH and KDM4A (MINA53; from IC50 values, different assay conditions)	preferential inhibition of MINA53 over all other tested 2OG oxygenases (MINA53)
CCCCCSc1ncc(C(=O)O)c(=O)[nH]1 [compound 4, 2-(Pentylthio)-3,4-dihydro-4-oxopyrimidine-5-carboxylic Acid]	4.3 ± 0.4 µM	97.7 ± 3%	100 ± 2.9%	10.5 ± 0.8 µM	51.2 ± 3 µM		
O=C(O)c1cnc(SCCc2ccccc2)[nH]c1=O [compound 9, 2-(Phenethylthio)-3,4-dihydro-4-oxopyrimidine-5-carboxylic Acid]	1.6 ± 0.2 µM	107 ± 4.8%	102 ± 2.1%	23.8 ± 1.4 µM	54.2 ± 2 µM		
O=C(O)/C=C\Sc1ncc(C(=O)O)c(=O)[nH]1 [compound 13, (Z)-2-((2-carboxyvinyl)thio)-3,4-dihydro-4-oxopyrimidine-5-carboxylic Acid]	6.8 ± 0.5 µM	107 ± 4.2%	104 ± 4.1%	86.6 ± 4.2 µM	63.7 ± 4 µM		
CSc1ncc(C(=O)O)c(=O)[nH]1 [compound 2, 2-(Methylthio)-3,4-dihydro-4-oxopyrimidine-5-carboxylic Acid]	3 ± 0.5 µM	97.8 ± 3%	100 ± 2.5%	15.3 ± 0.9 µM	106 ± 6 µM	~5 fold	
O=C(O)c1cnc(SCC2CCCCC2)[nH]c1=O [compound 6, 2-((Cyclohexylmethyl)thio)-3,4-dihydro-4-oxopyrimidine-5-carboxylic Acid]	5 ± 0.6 µM	104 ± 4.1%	99.2 ± 2.1%	7.8 ± 0.6 µM	47.6 ± 4 µM		
CCOC(=O)/C=C\Sc1ncc(C(=O)O)c(=O)[nH]1 [compound 12, (Z)-2-((3-Ethoxy-3-oxoprop-1-en-1-yl)thio)-3,4-dihydro-4-oxopyrimidine-5-carboxylic Acid]	5.4 ± 0.4 µM	104 ± 4.1%	103 ± 2.3%	30.1 ± 2 µM	26.7 ± 2 µM		
O=C(O)c1cnc(SCc2ccccc2)[nH]c1=O [compound 7, 2-(Benzylthio)-3,4-dihydro-4-oxopyrimidine-5-carboxylic Acid]	3.8 ± 0.2 µM	107 ± 3.8%	101 ± 2.9%	20.2 ± 1.6 µM	> 100 µM		≥ 5 fold
O=C(O)c1cnc(SCCCc2ccccc2)[nH]c1=O [compound 10, 2-((3-Phenylpropyl)thio)-3,4-dihydro-4-oxopyrimidine-5-carboxylic Acid]	1.5 ± 0.1 µM	97.9 ± 2%	101 ± 2.7%	29.8 ± 2 µM	57.5 ± 3.8 µM		≥ 20 fold
O=C(O)c1c[nH]c(=S)[nH]c1=O [compound 1]	208 ± 10 µM	98.7 ± 3%	99.2 ± 2.7%	> 100 µM	53.2 ± 3 µM		

More lines, main results first:

IC50 (MINA53)	remaining activity at 100 µM (p300)	remaining activity at 100 µM (PCAF)	IC50 (FIH)	IC50 (KDM3B)	preference for the inhibition of MINA53 over FIH and KDM4A (MINA53; from IC50 values, different assay conditions)	SMILES	preferential inhibition of MINA53 over all other tested 2OG oxygenases (MINA53)
3 ± 0.2 µM	106 ± 3.5%	103 ± 3.7%	19.4 ± 1.4 µM	56.2 ± 4 µM		O=C(CSc1ncc(C(=O)O)c(=O)[nH]1)c1ccccc1 [compound 8, 2-((2-Oxo-2-phenylethyl)thio)-3,4-dihydro-4-oxopyrimidine-5-carboxylic Acid]	
2.4 ± 0.2 µM	98.6 ± 2.2%	100 ± 3.7%	19.2 ± 1.2 µM	65.9 ± 4.5 µM		O=C(O)c1cnc(SCCCCc2ccccc2)[nH]c1=O [compound 11, 2-((4-Phenylbutyl)thio)-3,4-dihydro-4-oxopyrimidine-5-carboxylic Acid]	
65.4 ± 5 µM	106 ± 3.5%	104 ± 3.7%	4 ± 0.3 µM	66.8 ± 4 µM		CCCCCCCCCSc1ncc(C(=O)O)c(=O)[nH]1 [compound 5, 2-(Nonylthio)-3,4-dihydro-4-oxopyrimidine-5-carboxylic Acid]	
13.1 ± 0.8 µM	103 ± 2%	101 ± 3.7%	15.9 ± 1.1 µM	62.1 ± 3 µM		CCCCSc1ncc(C(=O)O)c(=O)[nH]1 [compound 3, 2-(Butylthio)-3,4-dihydro-4-oxopyrimidine-5-carboxylic Acid]	
